Measurements taken from EP0449009A2, “Use of gallopamil for the preparation of medicaments for the treatment of acute renal failure” (KNOLL AG, priority 1990, dated 1991).

Tested on: Patienten, die an akutem Nierenversagen erkrankt waren
Test: Clinical study of gallopamil infusion in patients with acute renal failure
Format: in vivo
Method: Zum Nachweis der Wirksamkeit bei akutem Nierenversagen wurde Gallopamil 8 Patienten, die an akutem Nierenversagen erkrankt waren, über einen Zeitraum von 4 Stunden intrarenal in Dosierungen von 40 bis 160 µg/min kontinuierlich infundiert. Gleichzeitig wurde intravenös ein Diuretikum (Furosemid) in einer Konzentration von 40 µg/min über 24 Stunden verabreicht. Bei 2 weiteren Patienten wurde Gallopamil intravenös über Zeiträume von 3 und 24 Stunden in einer Menge von 40 µg/min infundiert.
In dieser Studie konnte bei 80 % der Patienten der deletäre Verlauf des akuten Nierenversagens gestoppt werden (siehe nachstehende Tabelle).

[1] = whole study: 8 patients 40 to 160 µg/min intrarenal over 4 h + Furosemid i.v., 2 patients 40 µg/min intravenous

COc1ccc(CCN(C)CCCC(C#N)(c2cc(OC)c(OC)c(OC)c2)C(C)C)cc1OC (stereo not drawn) [Gallopamil, 1-(3,4-Dimethoxyphenyl)-3-methylaza-7-cyan-7-(3,4,5-trimethoxyphenyl)-8-methylnonan]
Kreatinin-Ausscheidung nach einem Behandlungstag (patient with G-6-PD (Glukose-6-phosphatdehydrogenasemangel), treatment begun 2 weeks after onset and after two dialyses, 83 µg/min intrarenal over 4 h + Furosemid 40 µg/min i.v. over 24 h, before treatment 0,8): 1,2 ml/min
Kreatininkonzentration im Blut nach sieben Behandlungstagen (patient with G-6-PD (Glukose-6-phosphatdehydrogenasemangel), treatment begun 2 weeks after onset and after two dialyses, 83 µg/min intrarenal over 4 h + Furosemid 40 µg/min i.v. over 24 h, before treatment 14,1): 14,6 mg/dl
Kreatinin-Ausscheidung nach einem Behandlungstag (patient with Malaria, treatment begun 2 weeks after onset and after two dialyses, 50 µg/min intrarenal over 4 h + Furosemid 40 µg/min i.v. over 24 h, before treatment 2,2): 3,7 ml/min
Kreatininkonzentration im Blut nach sieben Behandlungstagen (patient with Malaria, treatment begun 2 weeks after onset and after two dialyses, 50 µg/min intrarenal over 4 h + Furosemid 40 µg/min i.v. over 24 h, before treatment 12,7): 5,5 mg/dl
Kreatinin-Ausscheidung nach einem Behandlungstag (patient with Malaria, 40 µg/min intrarenal over 4 h + Furosemid 40 µg/min i.v. over 24 h, before treatment 5,3): 14,3 ml/min
Kreatininkonzentration im Blut nach sieben Behandlungstagen (patient with Malaria, 40 µg/min intrarenal over 4 h + Furosemid 40 µg/min i.v. over 24 h, before treatment 10,4): 3,1 mg/dl
Kreatininkonzentration im Blut nach sieben Behandlungstagen (patient with Rhabdomyolysis, 40 µg/min intravenous over 3 h, before treatment 5,2): 5,9 mg/dl
Kreatinin-Ausscheidung nach einem Behandlungstag (patient with Rhabdomyolysis, 40 µg/min intravenous over 3 h, before treatment 8,9): 3,6 ml/min
Kreatinin-Ausscheidung nach einem Behandlungstag (patient with Rhabdomyolysis, 80 µg/min intrarenal over 4 h + Furosemid 40 µg/min i.v. over 24 h, before treatment 4,0): 5,1 ml/min
Kreatininkonzentration im Blut nach sieben Behandlungstagen (patient with Rhabdomyolysis, 80 µg/min intrarenal over 4 h + Furosemid 40 µg/min i.v. over 24 h, before treatment 10,1): 9,3 mg/dl
Kreatininkonzentration im Blut nach sieben Behandlungstagen (patient with Schock, 40 µg/min intravenous over 24 h, before treatment 5,5): 2,9 mg/dl
Kreatinin-Ausscheidung nach einem Behandlungstag (patient with Schock, 40 µg/min intravenous over 24 h, before treatment 10,4): 17,9 ml/min
Kreatinin-Ausscheidung nach einem Behandlungstag (patient with Schock, 83 µg/min intrarenal over 4 h + Furosemid 40 µg/min i.v. over 24 h, before treatment 3,4): 13,2 ml/min
Kreatininkonzentration im Blut nach sieben Behandlungstagen (patient with Schock, 83 µg/min intrarenal over 4 h + Furosemid 40 µg/min i.v. over 24 h, before treatment 4,7): 1,1 mg/dl
Kreatinin-Ausscheidung nach einem Behandlungstag (patient with hypovolenischer Schock, 160 µg/min intrarenal over 4 h + Furosemid 40 µg/min i.v. over 24 h, before treatment 2,3): 16,1 ml/min
Kreatininkonzentration im Blut nach sieben Behandlungstagen (patient with hypovolenischer Schock, 160 µg/min intrarenal over 4 h + Furosemid 40 µg/min i.v. over 24 h, before treatment 9,6): 2,5 mg/dl
Kreatininkonzentration im Blut nach sieben Behandlungstagen (patient with septischer Schock, 83 µg/min intrarenal over 4 h + Furosemid 40 µg/min i.v. over 24 h, before treatment 10,6): 1,3 mg/dl
Kreatinin-Ausscheidung nach einem Behandlungstag (patient with septischer Schock, 83 µg/min intrarenal over 4 h + Furosemid 40 µg/min i.v. over 24 h, before treatment 29,0): 48,0 ml/min
Patienten, bei denen auf eine Dialyse verzichtet werden konnte [1]: 90%
Patienten, bei denen der deletäre Verlauf des akuten Nierenversagens gestoppt werden konnte [1]: 80%
Überleben des akuten Nierenversagens [1]: alle Patienten überlebten
